Active and inactive are the calls of the source.
Assays:
[1] = molecular target: T1, Zinc finger protein mex-5 (Caenorhabditis elegans, UniProt Q9XUB2); test: potency of MEX-5 RNA-binding blockers – biochemical, C. elegans, fluorescence polarization, dose response (AID 1960)
T1 sequence (Q9XUB2 whole entry): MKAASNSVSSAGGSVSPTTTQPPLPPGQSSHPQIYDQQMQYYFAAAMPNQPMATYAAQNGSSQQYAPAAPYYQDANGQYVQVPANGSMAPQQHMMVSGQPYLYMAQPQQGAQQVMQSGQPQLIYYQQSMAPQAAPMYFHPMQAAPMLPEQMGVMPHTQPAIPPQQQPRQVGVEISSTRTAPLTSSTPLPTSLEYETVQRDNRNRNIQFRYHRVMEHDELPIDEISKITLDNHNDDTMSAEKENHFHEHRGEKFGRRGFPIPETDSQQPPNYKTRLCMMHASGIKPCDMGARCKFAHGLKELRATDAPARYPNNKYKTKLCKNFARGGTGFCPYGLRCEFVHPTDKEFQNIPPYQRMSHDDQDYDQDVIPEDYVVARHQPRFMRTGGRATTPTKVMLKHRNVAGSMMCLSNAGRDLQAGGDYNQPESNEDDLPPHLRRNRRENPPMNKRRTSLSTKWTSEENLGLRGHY

[2] = molecular target: Cystic fibrosis transmembrane conductance regulator/Golgi-associated PDZ and coiled-coil motif-containing protein (Homo sapiens, UniProt P13569+Q9HD26); test: potency against CAL PDZ-peptide interaction – biochemical, fluorescence polarization, Cerulean-tagged CAL PDZ, cherry-picks, dose response (AID 504773)
Sequence of Cystic fibrosis transmembrane conductance regulator/Golgi-associated PDZ and coiled-coil motif-containing protein (P13569 whole entry, other chains not shown): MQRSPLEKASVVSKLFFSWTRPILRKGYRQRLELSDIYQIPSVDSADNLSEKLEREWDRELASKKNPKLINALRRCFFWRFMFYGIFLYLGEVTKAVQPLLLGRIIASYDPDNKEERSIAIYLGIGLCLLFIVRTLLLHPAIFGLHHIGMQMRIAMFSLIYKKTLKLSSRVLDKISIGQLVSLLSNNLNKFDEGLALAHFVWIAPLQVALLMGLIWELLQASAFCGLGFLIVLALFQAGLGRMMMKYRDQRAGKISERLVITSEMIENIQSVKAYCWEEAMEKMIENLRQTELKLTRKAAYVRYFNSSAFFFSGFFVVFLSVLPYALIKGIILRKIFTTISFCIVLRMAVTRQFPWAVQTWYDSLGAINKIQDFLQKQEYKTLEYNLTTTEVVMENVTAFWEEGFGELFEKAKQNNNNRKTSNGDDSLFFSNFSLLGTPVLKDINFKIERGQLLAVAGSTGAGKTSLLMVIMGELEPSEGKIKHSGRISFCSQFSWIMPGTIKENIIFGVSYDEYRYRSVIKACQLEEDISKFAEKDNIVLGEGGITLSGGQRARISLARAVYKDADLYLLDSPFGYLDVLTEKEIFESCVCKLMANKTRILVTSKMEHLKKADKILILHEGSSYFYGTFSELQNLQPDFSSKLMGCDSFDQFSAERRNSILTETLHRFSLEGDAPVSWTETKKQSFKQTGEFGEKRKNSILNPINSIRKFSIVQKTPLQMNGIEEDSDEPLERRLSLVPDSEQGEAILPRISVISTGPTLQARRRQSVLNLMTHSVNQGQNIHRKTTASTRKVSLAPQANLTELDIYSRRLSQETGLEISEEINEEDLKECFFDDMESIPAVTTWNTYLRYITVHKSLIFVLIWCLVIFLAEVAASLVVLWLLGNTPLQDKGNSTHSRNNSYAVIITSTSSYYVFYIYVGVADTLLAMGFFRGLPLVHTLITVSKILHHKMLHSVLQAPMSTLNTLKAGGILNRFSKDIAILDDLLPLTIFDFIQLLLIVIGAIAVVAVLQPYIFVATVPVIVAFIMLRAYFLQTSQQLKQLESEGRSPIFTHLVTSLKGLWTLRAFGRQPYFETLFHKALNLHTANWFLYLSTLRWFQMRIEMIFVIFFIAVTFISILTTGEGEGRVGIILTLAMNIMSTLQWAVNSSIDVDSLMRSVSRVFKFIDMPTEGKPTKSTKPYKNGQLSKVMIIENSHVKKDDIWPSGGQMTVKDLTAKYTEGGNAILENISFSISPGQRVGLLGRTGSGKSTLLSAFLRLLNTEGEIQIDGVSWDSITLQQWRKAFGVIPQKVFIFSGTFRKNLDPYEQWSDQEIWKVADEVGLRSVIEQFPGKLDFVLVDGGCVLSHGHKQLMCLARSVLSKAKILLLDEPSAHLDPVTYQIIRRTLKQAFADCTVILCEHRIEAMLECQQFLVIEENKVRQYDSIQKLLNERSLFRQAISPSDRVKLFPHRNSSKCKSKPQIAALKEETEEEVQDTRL

Vero = test: viability of Vero cells under compound – cytotoxicity control for flavivirus capping enzyme inhibitors (AID 588742); format: functional; settings: Chlorocebus sabaeus
[3] = molecular target: Polyadenylate-binding protein 1 (Homo sapiens, UniProt P11940); test: MLLE domain peptide-binding blockers, IC50 – biochemical, fluorescence polarization, FITC-PAM2 peptide, dose response (AID 602259); format: functional; settings: read-out: IC50_Mean
Sequence of Polyadenylate-binding protein 1 (P11940 whole entry, the tested form may be a part): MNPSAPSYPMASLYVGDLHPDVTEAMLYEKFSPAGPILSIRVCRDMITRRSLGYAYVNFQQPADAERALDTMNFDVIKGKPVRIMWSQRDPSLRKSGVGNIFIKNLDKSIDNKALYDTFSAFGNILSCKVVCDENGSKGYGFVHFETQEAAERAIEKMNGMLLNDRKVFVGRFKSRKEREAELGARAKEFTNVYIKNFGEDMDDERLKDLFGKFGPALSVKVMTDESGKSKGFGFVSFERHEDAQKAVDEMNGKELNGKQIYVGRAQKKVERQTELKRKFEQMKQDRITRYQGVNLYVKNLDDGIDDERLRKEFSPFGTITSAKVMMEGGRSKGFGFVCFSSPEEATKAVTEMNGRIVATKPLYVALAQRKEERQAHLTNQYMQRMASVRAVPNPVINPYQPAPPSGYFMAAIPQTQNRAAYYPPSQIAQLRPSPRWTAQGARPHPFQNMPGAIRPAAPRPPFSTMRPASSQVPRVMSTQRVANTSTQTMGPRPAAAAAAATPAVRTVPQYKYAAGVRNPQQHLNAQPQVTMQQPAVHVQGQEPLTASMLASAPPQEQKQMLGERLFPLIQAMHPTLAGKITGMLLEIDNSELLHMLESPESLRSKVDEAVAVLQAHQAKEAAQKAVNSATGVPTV

[4] = molecular target: T2, Sentrin-specific protease 8 (Homo sapiens, UniProt Q96LD8); format: functional;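 also: kinetic enzyme assay of SENP8 cleaving a Nedd8 protein substrate, dose-response confirmation of screening hits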
T2 sequence (Q96LD8 whole entry): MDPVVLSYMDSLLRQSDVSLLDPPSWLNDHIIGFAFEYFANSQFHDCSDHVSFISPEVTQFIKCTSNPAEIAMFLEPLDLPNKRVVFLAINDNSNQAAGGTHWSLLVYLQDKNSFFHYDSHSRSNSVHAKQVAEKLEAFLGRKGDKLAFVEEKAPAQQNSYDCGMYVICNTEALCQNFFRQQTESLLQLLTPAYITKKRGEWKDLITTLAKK

Caspase-6 = molecular target: T3, Caspase-6 (Homo sapiens, UniProt P55212); test: inhibition of CASP6 peptide cleavage – biochemical, VEID-R110 fluorescence, cherry-pick, dose response (AID 720632)
T3 sequence (P55212 whole entry): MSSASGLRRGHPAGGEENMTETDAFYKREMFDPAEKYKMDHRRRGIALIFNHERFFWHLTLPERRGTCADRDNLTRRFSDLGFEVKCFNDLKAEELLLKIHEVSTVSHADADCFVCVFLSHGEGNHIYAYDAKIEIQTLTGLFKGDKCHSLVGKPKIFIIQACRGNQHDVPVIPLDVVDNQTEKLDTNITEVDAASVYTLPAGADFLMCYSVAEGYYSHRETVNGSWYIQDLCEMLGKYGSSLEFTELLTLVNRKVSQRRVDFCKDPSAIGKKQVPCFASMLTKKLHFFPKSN

[5] = molecular target: T4, Sentrin-specific protease 6 (Homo sapiens, UniProt Q9GZR1); test: inhibition of human SENP6 catalytic domain – biochemical, luminescence, set 2, SAR follow-up (AID 588598); format: functional
T4 sequence (Q9GZR1 whole entry): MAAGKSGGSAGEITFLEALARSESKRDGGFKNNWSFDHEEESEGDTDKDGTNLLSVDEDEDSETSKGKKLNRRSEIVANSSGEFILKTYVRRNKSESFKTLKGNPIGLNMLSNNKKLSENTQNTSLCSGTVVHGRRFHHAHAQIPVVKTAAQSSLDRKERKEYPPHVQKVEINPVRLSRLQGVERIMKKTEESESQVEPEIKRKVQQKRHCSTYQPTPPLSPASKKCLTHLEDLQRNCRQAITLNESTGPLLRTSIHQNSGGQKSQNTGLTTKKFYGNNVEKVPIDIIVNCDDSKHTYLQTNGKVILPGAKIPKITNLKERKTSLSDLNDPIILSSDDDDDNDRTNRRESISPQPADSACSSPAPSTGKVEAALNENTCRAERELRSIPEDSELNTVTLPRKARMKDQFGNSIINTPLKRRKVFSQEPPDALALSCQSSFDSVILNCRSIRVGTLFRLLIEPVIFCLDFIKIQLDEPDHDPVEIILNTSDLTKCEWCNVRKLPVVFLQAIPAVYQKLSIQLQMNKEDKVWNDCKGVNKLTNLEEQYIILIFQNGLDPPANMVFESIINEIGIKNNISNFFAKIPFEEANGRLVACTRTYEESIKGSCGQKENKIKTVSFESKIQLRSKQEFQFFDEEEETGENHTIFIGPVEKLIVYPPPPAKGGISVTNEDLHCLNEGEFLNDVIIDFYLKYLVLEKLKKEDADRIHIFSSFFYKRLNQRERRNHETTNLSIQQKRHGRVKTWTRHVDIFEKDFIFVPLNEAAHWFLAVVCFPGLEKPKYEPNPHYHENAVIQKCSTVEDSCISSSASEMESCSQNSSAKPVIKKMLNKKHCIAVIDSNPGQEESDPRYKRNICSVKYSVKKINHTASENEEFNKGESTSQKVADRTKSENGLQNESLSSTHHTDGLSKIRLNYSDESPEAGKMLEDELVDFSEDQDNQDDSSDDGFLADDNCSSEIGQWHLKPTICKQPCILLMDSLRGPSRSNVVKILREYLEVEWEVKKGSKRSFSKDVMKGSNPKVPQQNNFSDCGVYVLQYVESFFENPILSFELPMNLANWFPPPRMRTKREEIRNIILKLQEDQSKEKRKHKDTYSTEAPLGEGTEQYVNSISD

[6] = Luminescence-based cell-based high throughput dose response assay to identify activators of the DAF-12 from the parasite S. stercoralis (ssDAF-12).; format: functional
BJ [7] = test: BJ-TERT fibroblast viability loss – cell-based, RAS-independent, luminescence, dose response (AID 1933); format: functional; settings: Homo sapiens
BJ [8] = test: growth inhibition of engineered Ras-driven BJ cells – cell-based, alamar blue fluorescence, cherrypicked samples, dose response (AID 2631); format: functional; settings: Homo sapiens;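 also: confirmatory dose-response assay in RAS-dependent BJ fibroblasts engineered with TERT, LT and ST, with cytotoxicity read by fluorescence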
[9] = cAMP pathway inhibition in counterscreen cell line – TR-FRET cAMP detection, counter-screen for MC4R biased antagonist project, dose response (AID 602305); format: functional, cell-based;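 also: U2OS cells stimulated with forskolin near its EC80 as the cAMP inducer; potency is for inhibition of forskolin-stimulated cAMP signaling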

O=C(O)CSc1cc(NS(=O)(=O)c2ccc(Cl)cc2)c2ccccc2c1O
EC50 [1]: 6.3 µM (active) | AC50 [2]: 30 µM (active) | CC50 (Vero): 33.2 µM (active) | IC50 [3]: > 66 µM (inactive)

COc1ccccc1N1C(=O)Cc2ccccc2C1=O
IC50 [4]: 2.04 µM (active) | AC50 (Caspase-6): 24.2 µM (active)

Oc1ccccc1/C=C/c1noc(-c2ccccc2O)n1
IC50 [5]: 62.4 µM (active) | IC50 [6]: > 67.6 µM (inactive)

Cc1nn(-c2ccccc2)c(Cl)c1CN(C(=O)CCl)c1ccc(Cl)cc1
EC50 (BJ [7]): 0.707 µM (inconclusive) | EC50 (BJ [8]): 0.515 µM (active) | IC50 [9]: > 64.6 µM (inactive)

From ChEMBL document CHEMBL1201862, “PubChem BioAssay data set” (2004)
